The record followed here is ChEMBL document CHEMBL3627608, “Crystal structures of human RIP2 kinase catalytic domain complexed with ATP-competitive inhibitors: Foundations for understanding inhibitor selectivity” (Bioorg Med Chem, 2015).

The target of test [1] is Myosin light chain kinase, smooth muscle (Homo sapiens) (UniProt Q15746). As to the kind of experiment: Inhibition of MLCK (unknown origin) at 10 uM after 120 mins P33 radiolabeled kinase activity assay.
Test [2] has as its target Serine/threonine-protein kinase SIK1 (Homo sapiens) (UniProt P57059). Nature of the test: Inhibition of SIK1 (unknown origin) at 10 uM after 120 mins P33 radiolabeled kinase activity assay.
Test [3] concerns the target T1, Beta-adrenergic receptor kinase 1 (Homo sapiens) (UniProt P25098).
T1 sequence (whole entry): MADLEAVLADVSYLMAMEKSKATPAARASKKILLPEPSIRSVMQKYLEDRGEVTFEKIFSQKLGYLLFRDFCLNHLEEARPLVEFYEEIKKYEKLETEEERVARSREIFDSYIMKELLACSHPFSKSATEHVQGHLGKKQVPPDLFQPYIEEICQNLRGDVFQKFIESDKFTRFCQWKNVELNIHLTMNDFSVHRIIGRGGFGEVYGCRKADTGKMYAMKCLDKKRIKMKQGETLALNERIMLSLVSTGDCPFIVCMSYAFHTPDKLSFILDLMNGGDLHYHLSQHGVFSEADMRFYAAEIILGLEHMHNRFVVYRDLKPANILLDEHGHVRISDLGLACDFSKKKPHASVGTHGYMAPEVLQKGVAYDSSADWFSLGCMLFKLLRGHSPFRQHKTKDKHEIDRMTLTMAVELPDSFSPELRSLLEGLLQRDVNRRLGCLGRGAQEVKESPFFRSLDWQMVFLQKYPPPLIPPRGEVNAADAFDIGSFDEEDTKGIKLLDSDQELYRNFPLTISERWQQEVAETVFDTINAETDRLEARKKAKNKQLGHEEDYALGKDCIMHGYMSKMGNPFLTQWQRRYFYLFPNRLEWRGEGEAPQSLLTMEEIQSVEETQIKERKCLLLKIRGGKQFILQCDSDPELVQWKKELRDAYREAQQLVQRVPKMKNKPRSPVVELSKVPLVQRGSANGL
As to the kind of experiment: Inhibition of GRK2 (unknown origin) at 10 uM after 120 mins P33 radiolabeled kinase activity assay.

For test [4], the target named is Mitogen-activated protein kinase kinase kinase 12 (Homo sapiens) (UniProt Q12852). As to the kind of experiment: Inhibition of DLK (unknown origin) at 10 uM after 120 mins P33 radiolabeled kinase activity assay.
Sequence of Mitogen-activated protein kinase kinase kinase 12 (Homo sapiens) (Q12852 whole entry, looked up): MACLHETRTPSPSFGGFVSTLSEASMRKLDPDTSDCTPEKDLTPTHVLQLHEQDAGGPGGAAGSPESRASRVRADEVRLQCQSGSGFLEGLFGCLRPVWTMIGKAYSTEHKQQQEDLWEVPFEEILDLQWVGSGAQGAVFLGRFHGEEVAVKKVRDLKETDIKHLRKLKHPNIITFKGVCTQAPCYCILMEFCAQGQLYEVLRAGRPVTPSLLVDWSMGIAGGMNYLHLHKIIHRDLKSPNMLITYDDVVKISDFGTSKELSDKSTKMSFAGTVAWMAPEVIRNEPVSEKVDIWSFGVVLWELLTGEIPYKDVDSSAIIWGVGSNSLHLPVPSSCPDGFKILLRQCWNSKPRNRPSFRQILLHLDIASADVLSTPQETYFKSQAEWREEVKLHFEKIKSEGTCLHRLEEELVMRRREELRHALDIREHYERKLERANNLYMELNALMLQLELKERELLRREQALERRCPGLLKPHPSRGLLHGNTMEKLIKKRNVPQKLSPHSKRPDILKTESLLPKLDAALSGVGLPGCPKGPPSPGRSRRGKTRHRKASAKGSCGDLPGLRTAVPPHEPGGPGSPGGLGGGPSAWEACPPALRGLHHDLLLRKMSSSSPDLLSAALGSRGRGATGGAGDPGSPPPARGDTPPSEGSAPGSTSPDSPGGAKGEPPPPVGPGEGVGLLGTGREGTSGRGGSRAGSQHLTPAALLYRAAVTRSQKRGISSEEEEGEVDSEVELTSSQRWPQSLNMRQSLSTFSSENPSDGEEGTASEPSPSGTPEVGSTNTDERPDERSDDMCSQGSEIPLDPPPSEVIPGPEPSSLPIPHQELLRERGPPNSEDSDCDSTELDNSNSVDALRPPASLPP
Test [5] concerns the target Protein-tyrosine kinase 2-beta (Homo sapiens) (UniProt Q14289). As to the kind of experiment: Inhibition of PYK2 (unknown origin) at 10 uM after 120 mins P33 radiolabeled kinase activity assay.
In test [6] the target is T2, Serine/threonine-protein kinase ULK3 (Homo sapiens) (UniProt Q6PHR2).
T2 sequence (whole entry): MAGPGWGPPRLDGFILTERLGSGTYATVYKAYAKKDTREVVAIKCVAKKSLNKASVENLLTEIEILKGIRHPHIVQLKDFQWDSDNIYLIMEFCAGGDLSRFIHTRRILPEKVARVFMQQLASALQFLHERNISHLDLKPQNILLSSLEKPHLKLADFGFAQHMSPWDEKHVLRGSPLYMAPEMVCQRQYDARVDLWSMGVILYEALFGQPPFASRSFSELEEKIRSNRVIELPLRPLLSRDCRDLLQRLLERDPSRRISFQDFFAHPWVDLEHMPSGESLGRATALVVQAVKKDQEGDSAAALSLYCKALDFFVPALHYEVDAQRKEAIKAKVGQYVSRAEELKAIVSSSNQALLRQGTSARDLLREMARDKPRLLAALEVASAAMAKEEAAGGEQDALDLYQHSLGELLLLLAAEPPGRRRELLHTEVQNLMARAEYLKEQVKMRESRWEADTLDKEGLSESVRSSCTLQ
Nature of the test: Inhibition of ULK3 (unknown origin) at 10 uM after 120 mins P33 radiolabeled kinase activity assay.

Test [7] has as its target T3, Myotonin-protein kinase (Homo sapiens) (UniProt Q09013).
T3 sequence (whole entry): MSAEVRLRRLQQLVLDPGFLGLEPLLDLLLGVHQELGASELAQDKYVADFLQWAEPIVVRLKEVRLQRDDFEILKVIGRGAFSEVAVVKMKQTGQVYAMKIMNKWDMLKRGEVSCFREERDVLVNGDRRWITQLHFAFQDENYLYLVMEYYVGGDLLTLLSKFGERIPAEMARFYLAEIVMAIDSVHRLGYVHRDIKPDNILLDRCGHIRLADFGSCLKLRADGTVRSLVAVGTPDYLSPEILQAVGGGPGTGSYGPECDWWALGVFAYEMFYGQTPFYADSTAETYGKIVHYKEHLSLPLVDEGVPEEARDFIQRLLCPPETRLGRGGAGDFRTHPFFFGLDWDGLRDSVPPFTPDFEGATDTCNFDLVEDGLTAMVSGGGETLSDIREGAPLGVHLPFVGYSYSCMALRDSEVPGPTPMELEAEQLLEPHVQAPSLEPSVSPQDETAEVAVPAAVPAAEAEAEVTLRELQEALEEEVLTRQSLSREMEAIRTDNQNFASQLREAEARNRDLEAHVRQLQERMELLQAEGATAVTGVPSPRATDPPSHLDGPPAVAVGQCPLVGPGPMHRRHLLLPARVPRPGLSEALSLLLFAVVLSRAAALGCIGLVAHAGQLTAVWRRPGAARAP
Nature of the test: Inhibition of DMPK (unknown origin) at 10 uM after 120 mins P33 radiolabeled kinase activity assay.

Test [8] deals with Mitogen-activated protein kinase kinase kinase 1 (Homo sapiens) (UniProt Q13233). Nature of the test: Inhibition of MEKK1 (unknown origin) at 10 uM after 120 mins P33 radiolabeled kinase activity assay.
Sequence of Mitogen-activated protein kinase kinase kinase 1 (Homo sapiens) (Q13233 whole entry): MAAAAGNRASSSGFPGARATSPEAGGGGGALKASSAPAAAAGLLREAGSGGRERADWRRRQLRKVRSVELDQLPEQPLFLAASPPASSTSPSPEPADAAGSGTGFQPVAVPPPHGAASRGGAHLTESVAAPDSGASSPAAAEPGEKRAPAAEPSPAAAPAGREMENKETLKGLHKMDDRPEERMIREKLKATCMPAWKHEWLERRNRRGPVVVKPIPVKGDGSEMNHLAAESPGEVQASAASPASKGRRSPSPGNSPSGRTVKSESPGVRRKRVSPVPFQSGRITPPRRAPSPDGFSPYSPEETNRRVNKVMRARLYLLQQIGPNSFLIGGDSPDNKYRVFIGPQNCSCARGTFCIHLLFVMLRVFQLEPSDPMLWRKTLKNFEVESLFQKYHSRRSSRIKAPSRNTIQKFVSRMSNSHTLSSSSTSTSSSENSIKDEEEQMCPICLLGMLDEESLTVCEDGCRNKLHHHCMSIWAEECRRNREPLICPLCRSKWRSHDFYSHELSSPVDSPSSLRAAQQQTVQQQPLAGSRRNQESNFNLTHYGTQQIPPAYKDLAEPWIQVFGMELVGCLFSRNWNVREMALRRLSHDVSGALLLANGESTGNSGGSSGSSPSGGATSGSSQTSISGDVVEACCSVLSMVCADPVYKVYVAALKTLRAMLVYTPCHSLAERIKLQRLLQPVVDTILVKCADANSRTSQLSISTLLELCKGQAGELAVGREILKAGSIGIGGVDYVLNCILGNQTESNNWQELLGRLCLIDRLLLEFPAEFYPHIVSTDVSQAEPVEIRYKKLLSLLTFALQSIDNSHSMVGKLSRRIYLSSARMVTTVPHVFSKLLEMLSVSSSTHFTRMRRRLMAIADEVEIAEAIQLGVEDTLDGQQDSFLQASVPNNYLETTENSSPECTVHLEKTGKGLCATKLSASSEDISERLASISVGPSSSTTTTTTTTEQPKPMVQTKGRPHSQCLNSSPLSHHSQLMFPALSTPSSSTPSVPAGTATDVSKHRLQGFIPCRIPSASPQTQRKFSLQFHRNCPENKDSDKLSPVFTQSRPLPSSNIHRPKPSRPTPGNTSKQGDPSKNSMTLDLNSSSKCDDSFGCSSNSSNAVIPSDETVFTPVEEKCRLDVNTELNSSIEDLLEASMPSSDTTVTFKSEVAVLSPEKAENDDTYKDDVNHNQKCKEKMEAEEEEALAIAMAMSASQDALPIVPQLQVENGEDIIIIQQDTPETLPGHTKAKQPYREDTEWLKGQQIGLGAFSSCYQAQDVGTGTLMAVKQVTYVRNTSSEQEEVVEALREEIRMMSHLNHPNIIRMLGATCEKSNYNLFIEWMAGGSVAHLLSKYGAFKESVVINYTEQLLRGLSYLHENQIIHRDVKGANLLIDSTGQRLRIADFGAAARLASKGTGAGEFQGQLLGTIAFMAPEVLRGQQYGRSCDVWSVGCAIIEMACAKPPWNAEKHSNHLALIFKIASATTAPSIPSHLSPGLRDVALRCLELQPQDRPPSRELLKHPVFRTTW

Molecules are shown by their SMILES.

Sequence of Serine/threonine-protein kinase SIK1 (Homo sapiens) (P57059 whole entry): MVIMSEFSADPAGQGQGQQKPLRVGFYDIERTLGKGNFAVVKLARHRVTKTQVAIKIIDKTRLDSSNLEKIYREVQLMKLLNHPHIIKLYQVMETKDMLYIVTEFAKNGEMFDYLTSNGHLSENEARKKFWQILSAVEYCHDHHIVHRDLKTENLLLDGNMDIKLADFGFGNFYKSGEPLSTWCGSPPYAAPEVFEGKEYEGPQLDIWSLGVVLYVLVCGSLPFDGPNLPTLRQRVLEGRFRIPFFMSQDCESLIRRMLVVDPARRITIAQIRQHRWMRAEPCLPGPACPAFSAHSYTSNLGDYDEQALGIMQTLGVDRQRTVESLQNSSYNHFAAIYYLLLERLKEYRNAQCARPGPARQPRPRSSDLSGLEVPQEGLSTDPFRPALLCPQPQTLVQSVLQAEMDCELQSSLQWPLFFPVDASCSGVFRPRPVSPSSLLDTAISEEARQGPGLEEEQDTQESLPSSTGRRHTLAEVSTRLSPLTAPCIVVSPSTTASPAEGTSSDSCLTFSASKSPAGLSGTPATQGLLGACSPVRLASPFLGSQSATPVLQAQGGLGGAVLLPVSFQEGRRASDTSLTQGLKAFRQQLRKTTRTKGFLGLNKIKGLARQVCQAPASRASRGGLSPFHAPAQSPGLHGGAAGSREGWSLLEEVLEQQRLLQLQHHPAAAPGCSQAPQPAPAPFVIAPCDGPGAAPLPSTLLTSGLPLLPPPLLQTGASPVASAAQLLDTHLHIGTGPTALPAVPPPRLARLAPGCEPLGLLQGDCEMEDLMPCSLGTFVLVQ
Sequence of Myosin light chain kinase, smooth muscle (Homo sapiens) (Q15746 whole entry): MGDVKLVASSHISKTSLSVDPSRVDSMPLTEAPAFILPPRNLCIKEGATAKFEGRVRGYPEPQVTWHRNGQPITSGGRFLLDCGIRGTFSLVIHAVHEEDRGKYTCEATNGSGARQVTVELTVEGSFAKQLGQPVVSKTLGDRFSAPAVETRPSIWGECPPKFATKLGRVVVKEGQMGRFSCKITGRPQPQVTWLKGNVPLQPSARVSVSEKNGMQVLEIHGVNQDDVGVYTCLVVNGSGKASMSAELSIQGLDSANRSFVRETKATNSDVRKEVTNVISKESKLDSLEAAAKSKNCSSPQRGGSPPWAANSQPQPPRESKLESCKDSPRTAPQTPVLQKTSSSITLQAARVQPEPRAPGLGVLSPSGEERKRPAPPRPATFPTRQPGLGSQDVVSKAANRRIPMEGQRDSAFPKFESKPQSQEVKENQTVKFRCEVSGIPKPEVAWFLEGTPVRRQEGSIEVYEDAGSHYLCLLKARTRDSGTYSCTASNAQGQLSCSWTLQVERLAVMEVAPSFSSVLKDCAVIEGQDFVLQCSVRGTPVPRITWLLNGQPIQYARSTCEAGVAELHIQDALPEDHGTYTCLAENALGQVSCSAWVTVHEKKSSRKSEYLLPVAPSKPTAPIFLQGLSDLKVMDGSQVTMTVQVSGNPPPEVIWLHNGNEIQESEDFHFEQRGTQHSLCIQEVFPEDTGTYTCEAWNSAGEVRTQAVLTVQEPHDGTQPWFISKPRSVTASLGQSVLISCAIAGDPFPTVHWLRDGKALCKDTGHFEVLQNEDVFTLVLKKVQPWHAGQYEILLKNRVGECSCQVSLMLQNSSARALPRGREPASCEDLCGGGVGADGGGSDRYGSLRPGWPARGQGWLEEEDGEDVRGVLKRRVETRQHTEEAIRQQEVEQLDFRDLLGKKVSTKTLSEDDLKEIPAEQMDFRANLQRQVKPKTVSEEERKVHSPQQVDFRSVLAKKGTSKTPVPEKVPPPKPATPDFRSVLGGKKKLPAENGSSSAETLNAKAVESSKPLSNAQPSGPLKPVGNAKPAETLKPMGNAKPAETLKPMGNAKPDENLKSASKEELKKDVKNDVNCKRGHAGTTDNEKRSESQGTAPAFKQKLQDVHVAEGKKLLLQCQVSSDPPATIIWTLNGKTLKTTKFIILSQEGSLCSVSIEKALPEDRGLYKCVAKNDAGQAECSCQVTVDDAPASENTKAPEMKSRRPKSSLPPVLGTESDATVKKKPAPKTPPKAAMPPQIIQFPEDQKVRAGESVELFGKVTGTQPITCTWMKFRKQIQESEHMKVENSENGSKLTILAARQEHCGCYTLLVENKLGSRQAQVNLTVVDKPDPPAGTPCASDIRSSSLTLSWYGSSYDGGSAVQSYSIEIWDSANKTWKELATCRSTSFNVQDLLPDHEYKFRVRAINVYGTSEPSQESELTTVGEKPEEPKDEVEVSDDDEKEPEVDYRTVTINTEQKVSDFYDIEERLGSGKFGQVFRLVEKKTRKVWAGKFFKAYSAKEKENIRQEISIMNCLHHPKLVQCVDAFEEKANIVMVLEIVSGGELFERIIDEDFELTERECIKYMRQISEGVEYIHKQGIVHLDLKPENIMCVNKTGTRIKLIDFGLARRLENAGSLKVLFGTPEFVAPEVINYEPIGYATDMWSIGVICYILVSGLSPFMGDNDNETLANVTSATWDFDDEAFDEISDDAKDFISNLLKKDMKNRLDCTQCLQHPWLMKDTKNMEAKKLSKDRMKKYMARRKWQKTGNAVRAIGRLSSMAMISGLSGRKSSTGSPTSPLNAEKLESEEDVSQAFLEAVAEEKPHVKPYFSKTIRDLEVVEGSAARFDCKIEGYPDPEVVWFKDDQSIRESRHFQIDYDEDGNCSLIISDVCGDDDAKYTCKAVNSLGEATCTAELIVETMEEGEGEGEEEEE

As to `CS(=O)(=O)c1cccc(Nc2nccc(-c3sc(N4CCOCC4)nc3-c3cccc(NS(=O)(=O)c4c(F)cccc4F)c3)n2)c1`, the inhibition in test [1] is 15.6%; in test [2] it was 101%; in test [3], 4.42%; in test [4] it was 53%; in test [5], 23.7%; in test [6], 89.6%. For the same compound, the inhibition in test [7] was -2.69%; in test [8] it was -3%.
As to `CC(C)(C)c1cc(NC(=O)Nc2ccc(Oc3ccncc3)cc2)no1`, the inhibition in test [1] came out at 19.4%; in test [2], 22.6%; in test [3], 2.3%; in test [4] it was 8.04%; in test [5] it was 16.5%; in test [6] it was 31.7%. The inhibition is -2.09% in test [7] and 25.2% in test [8].
As for `COCCNC(=O)c1ccc2c(c1)nc(-c1cnc(-c3ccc(Cl)cc3)[nH]1)n2CCOC`, the inhibition in test [1] was 17.6%; in test [2], 34.4%; in test [3], 2.91%; in test [4], 5.39%; in test [5], 7.67%; in test [6] it was -5.07%. The inhibition was -6.45% in test [7] and -3.24% in test [8].
